Laboratory results as given in US12590086B2, “3-((1H-pyrazol-4-yl)methyl)-6′-(phenyl)-2H-(1,2′-bipyridin)-2-one derivatives and related compounds as GPR139 antagonists for use in a method of treatment of e.g. depression” (TAKEDA PHARMACEUTICAL COMPANY LIMITED, priority 2020, dated 2026).
Where two headings read alike, the source gives them in different places.

Target: T1, human GPR139 (Homo sapiens, UniProt Q6DWJ6)
T1 construct: expressed in transfected cells; host or cells: CHO-TREx (Life Technologies) cells, expression induced with doxycycline
T1 sequence (Q6DWJ6 1-353): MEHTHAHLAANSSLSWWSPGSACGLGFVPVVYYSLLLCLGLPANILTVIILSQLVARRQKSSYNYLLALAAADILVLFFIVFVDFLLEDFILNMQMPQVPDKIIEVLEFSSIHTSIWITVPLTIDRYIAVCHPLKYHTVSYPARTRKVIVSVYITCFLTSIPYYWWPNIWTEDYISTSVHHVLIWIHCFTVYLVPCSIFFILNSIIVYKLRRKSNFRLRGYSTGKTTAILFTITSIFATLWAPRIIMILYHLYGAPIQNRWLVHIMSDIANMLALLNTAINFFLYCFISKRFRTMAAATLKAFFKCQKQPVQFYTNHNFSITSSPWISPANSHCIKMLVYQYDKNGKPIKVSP
Assay: Inhibition rate of the amount of IP1 in GPR139-expressed CHO cells (inverse agonist assay, IP-ONE HTRF)
Type: cell-based
Procedure: Measurement of the inhibition rate of the amount of IP1 in 30 µM of the compound of Reference Example 1 in GPR139-expressed CHO cells
Changes in the amount of IP1 in GPR139-expressed CHO cells were measured in order to evaluate the activity of the compound via GPR139. GPR139 is a Gq-coupled receptor which varies intracellular calcium (Liu C et al., Mol Pharmacol. 2015 November; 88(5):911-25), so the amount of IP1, which is a stable metabolite of the second messenger IP3, changes due to activity regulation of GPR139. GPR139 is considered to be […] when expressed recombinantly in mammal cells, so a compound having a GPR139 receptor inverse agonist action is expected to reduce the amount of IP1 production.
The measurement of IP1 was made using an IP-ONE HTFR assay kit (cis-bio) and CHO-TREx (Life Technologies) cells stably transfected with GPR139. The CHO-TREx cells expressed human GPR139 with a tetracycline-inducing element. The cells were cultured in a medium containing F12K and 10% tetracycline-free FBS, and the expression of human GPR139 was induced over the course of 17 hours under conditions of 37° C. and 5% CO2 in the presence of 2 μg/mL of doxycycline (Clontech, 631311) in the growth medium on the day before assay. On the day of the test, after the cells were washed with 10 mL of PBS, the cells were detached with TrypLE Express (Life Technologies) and centrifuged at 1,000 rpm to form pellets, and a cell suspension was then prepared using a stimulation buffer (cis-bio, included in the IP-ONE HTRF assay kit).
The compound was diluted with the stimulation buffer, and 4 μL was added to a 384-well white assay plate (Greiner). The cell suspension was added so that there were 2000 cells per well, and the assay plate was left to stand for 40 minutes at 37° C. Equal amounts of iP1-d2 and Ab-Crp solutions (both available from cis-bio, included in the IP-ONE HTRF assay kit) prepared with a lysis buffer (cis-bio, included in the IP-ONE HTRF assay kit) were mixed, and 4 μL was added to the assay plate and left to stand for one hour at room temperature. After the fluorescence strengths of two wavelengths were measured by the HTRF settings of Envision (PerkinElmer), the value of Ratio=((Signal 665 nm)/(Signal 615 nm))×10000 was calculated.
Measurement of the Inhibition Rate of the Amount of IP1 in GPR139-Expressed CHO Cells (Inverse Agonist Assay)
The activities of the compounds of Examples 20 to 33 were expressed as relative values in Table 2 by measuring the inhibition rate of the amount of IP1 with the same method as in Test Example 1 and defining the inhibition rate of the amount of IP1 of the compound of Reference Example 1 in Test Example 1 as 100%.

[1] = relative value, inhibition rate of Reference Example 1 in Test Example 1 defined as 100%, GPR139-expressed CHO cells, read-out: IP1 Inhibition Rate at 30 μM

| inhibition at 30 µM (30 μM compound, CHO-TREx cells expressing human GPR139, vehicle set to 0%, IP1 concentration 0 set to 100%, read-out: inhibition rate of the amount of IP1) | inhibition at 30 µM [1] | Structure (SMILES) |
| --- | --- | --- |
| 84% |  | CCn1cc(Cn2ccn(-c3cc(N4CCO[C@H](C)C4)cc(C(F)(F)F)c3F)c2=O)cn1 [Reference Example 1, 1-[(1-Ethyl-1H-pyrazole-4-yl)methyl]-3-{2-fluoro-5-[(2R)-2-methylmorpholine-4-yl]-3-(trifluoromethyl)phenyl}-1,3-dihydro-2H-imidazole-2-one, reference compound] |
|  | 96% | CCn1cc(Cc2cccn(-c3cc(N4CCOC(C)(C)C4)cc(C4CC4)c3F)c2=O)cn1 [Example 21, 1-[3-cyclopropyl-5-(2,2-dimethylmorpholin-4-yl)-2-fluorophenyl]-3-[(1-ethyl-1H-pyrazol-4-yl)methyl]pyridin-2(1H)-one] |
|  | 102% | CCn1cc(Cc2ccc(C)n(-c3cc(C4CC4)cc(N4CCO[C@H](C)C4)c3)c2=O)cn1 [Example 29, 1-{3-cyclopropyl-5-[(2R)-2-methylmorpholin-4-yl]phenyl}-3-[(1-ethyl-1H-pyrazol-4-yl)methyl]-6-methylpyridin-2(1H)-one] |
|  | 96% | CCn1cc(Cc2c(C)ccn(-c3cc(N4CCO[C@H](C)C4)cc(C4CC4)c3F)c2=O)cn1 [Example 33, 1-{3-cyclopropyl-2-fluoro-5-[(2R)-2-methylmorpholin-4-yl]phenyl}-3-[(1-ethyl-1H-pyrazol-4-yl)methyl]-4-methylpyridin-2(1H)-one] |
|  | 98% | CCn1cc(Cc2cccn(-c3cc(N4CCO[C@H](C)C4)cc(OC(F)(F)F)c3F)c2=O)cn1 [Example 24, 3-[(1-ethyl-1H-pyrazol-4-yl)methyl]-1-{2-fluoro-5-[(2R)-2-methylmorpholin-4-yl]-3-(trifluoromethoxy)phenyl}pyridin-2(1H)-one] |
|  | 100% | CCn1cc(Cc2cccn(-c3cc(N4CCO[C@H](C)C4)cc(CC(F)(F)F)c3F)c2=O)cn1 [Example 28, 3-[(1-ethyl-1H-pyrazol-4-yl)methyl]-1-{2-fluoro-5-[(2R)-2-methylmorpholin-4-yl]-3-(2,2,2-trifluoroethyl)phenyl}pyridin-2(1H)-one] |
|  | 98% | CCn1cc(Cc2cccn(-c3cc(OC4CCOCC4)cc(C4CC4)c3F)c2=O)cn1 [Example 22, 1-{3-cyclopropyl-2-fluoro-5-[(oxan-4-yl)oxy]phenyl}-3-[(1-ethyl-1H-pyrazol-4-yl)methyl]pyridin-2(1H)-one] |
|  | 97% | CCn1cc(Cc2c(F)ccn(-c3cc(N4CCO[C@H](C)C4)cc(C4CC4)c3F)c2=O)cn1 [Example 26, 1-{3-cyclopropyl-2-fluoro-5-[(2R)-2-methylmorpholin-4-yl]phenyl}-3-[(1-ethyl-1H-pyrazol-4-yl)methyl]-4-fluoropyridin-2(1H)-one] |
|  | 100% | CCn1cc(Cc2cccn(-c3cc(OC4CCOCC4)cc(Br)c3F)c2=O)cn1 [Example 23, 1-{3-bromo-2-fluoro-5-[(oxan-4-yl)oxy]phenyl}-3-[(1-ethyl-1H-pyrazol-4-yl)methyl]pyridin-2(1H)-one] |
|  | 96% | CCn1cc(Cc2cccn(-c3cc(N4CCO[C@H](C)C4)cc(C4CC4)c3F)c2=O)cn1 [Example 20, 1-{3-cyclopropyl-2-fluoro-5-[(2R)-2-methylmorpholin-4-yl]phenyl}-3-[(1-ethyl-1H-pyrazol-4-yl)methyl]pyridin-2(1H)-one] |
|  | 99% | CCn1cc(Cc2cc(C)cn(-c3cc(N4CCO[C@H](C)C4)cc(C4CC4)c3F)c2=O)cn1 [Example 32, 1-{3-cyclopropyl-2-fluoro-5-[(2R)-2-methylmorpholin-4-yl]phenyl}-3-[(1-ethyl-1H-pyrazol-4-yl)methyl]-5-methylpyridin-2(1H)-one] |
|  | 96% | CCn1cc(Cc2cccn(-c3cc(N4CCO[C@H](C)C4)cc(C(C)C)c3F)c2=O)cn1 [Example 27, 3-[(1-ethyl-1H-pyrazol-4-yl)methyl]-1-{2-fluoro-5-[(2R)-2-methylmorpholin-4-yl]-3-(propan-2-yl)phenyl}pyridin-2(1H)-one] |
|  | 95% | CC(C)n1cc(Cc2cccn(-c3cc(N4CCO[C@H](C)C4)cc(C4CC4)c3F)c2=O)cn1 [Example 25, 1-{3-cyclopropyl-2-fluoro-5-[(2R)-2-methylmorpholin-4-yl]phenyl}-3-{[1-(propan-2-yl)-1H-pyrazol-4-yl]methyl}pyridin-2(1H)-one] |
|  | 97% | CCn1cc(Cc2cccn(-c3cc(N4CCC(F)(F)CC4)cc(C4CC4(F)F)c3F)c2=O)cn1 (stereo not drawn) [Example 30, 1-[3-(2,2-difluorocyclopropyl)-5-(4,4-difluoropiperidin-1-yl)-2-fluorophenyl]-3-[(1-ethyl-1H-pyrazol-4-yl)methyl]pyridin-2(1H)-one] |
|  | 100% | CCn1cc(Cc2ccc(F)n(-c3cc(C4CC4)cc(N4CCO[C@H](C)C4)c3)c2=O)cn1 [Example 31, 1-{3-cyclopropyl-5-[(2R)-2-methylmorpholin-4-yl]phenyl}-3-[(1-ethyl-1H-pyrazol-4-yl)methyl]-6-fluoropyridin-2(1H)-one] |
